Data taken from patent publication US20150176037A1, “OXIDOREDUCTASE REACTION CONTROL AND USE THEREOF” (Amano Enzyme Inc., priority 2012, published 2015).

Target: T1, formate dehydrogenase (FDH) (Candida boidinii, UniProt O13437)
T1 sequence (O13437 1-364): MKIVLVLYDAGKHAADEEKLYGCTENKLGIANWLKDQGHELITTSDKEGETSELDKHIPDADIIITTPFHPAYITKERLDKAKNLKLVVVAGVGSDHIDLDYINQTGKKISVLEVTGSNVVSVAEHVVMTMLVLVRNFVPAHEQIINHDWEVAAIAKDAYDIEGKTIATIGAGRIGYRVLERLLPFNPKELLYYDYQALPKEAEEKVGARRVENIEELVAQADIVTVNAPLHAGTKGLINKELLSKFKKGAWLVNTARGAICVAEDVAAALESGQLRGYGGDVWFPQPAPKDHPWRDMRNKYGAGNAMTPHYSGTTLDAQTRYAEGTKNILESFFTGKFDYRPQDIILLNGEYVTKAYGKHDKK
Assay: FDH reaction system using methylviologen as artificial coenzyme
Format: biochemical
Conditions: 5.0 units FDH
Method: 2.2 mM of formic acid, 4.4 mM of methylviologen (MV^2+ was used), and 5.0 units of FDH were incubated, and NADH was detected (lower row, left).
The enzyme catalyzing the reaction converting formic acid into carbon dioxide, “formate dehydrogenase (FDH)” also catalyzes the reaction converting carbon dioxide into formic acid. It should be noted that the speed of the conversion reaction from carbon dioxide into formic acid (reverse reaction) is about one sixth the speed of the conversion reaction from formic acid into carbon dioxide (forward reaction) (FIG. 1). Suppression of the forward reaction is important for the formation of formic acid from carbon dioxide using this enzyme. The original coenzyme of FDH is NAD^+, but methylviologen may be used as an artificial coenzyme (mediator) (Non-Patent Literature 2). However, in the past report, only the interaction between FDH and methylviologen is electrochemically measured, so that no essential finding about the interaction is obtained. Therefore, we studied the characteristics of the […] reaction system using methylviologen as an artificial coenzyme in detail. […] Methylviologen is advantageous also in that it is readily photoreduced using a photosensitive molecule. In contrast, photoreduction of the original coenzyme, NAD^+ is not easy.

C[n+]1ccc(-c2cc[n+](C)cc2)cc1 [methylviologen, 1,1′-dimethyl-4,4′-bipyridinium dichloride]
conversion reaction from carbon dioxide into formic acid (reverse reaction) (2.2 mM CO2, 4.4 mM MV^2+ reduced): only proceeds
conversion reaction from formic acid into carbon dioxide (forward reaction) (2.2 mM formic acid, 4.4 mM MV^2+): does not proceed at all
